Laboratory results: patent US20040214237A1, “DNA encoding SNORF138 and uses thereof” (Synaptic Pharmaceutical Corporation, priority 2002, published 2004)

Key:
[1] = biological target: T1, hSN138 (human SNORF138 receptor) (Homo sapiens, UniProt Q8TDU6); experiment: Activation of CFTR currents in Xenopus oocytes expressing both hSN138 and CFTR (dual electrode voltage clamp); type: cell-based; design: dose or concentration left out as unconfirmed; conditions: betamethasone valerate, bullet application, holding potential -80 mV, n=8
T1 construct: expressed in transfected cells; host or cells: Xenopus laevis oocytes (cytoplasmic injection of T3-driven cDNA with T3 RNA polymerase)
T1 sequence (Q8TDU6 1-330): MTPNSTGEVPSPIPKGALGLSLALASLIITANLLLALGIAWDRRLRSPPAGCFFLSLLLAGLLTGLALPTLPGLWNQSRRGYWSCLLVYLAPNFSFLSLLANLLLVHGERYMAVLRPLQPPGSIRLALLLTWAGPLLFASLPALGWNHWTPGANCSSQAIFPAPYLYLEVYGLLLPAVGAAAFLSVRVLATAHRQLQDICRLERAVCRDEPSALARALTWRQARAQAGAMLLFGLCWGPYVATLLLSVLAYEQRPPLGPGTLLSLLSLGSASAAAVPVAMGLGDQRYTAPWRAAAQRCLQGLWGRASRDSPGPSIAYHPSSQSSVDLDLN
Procedure: Oocytes were injected with a cocktail of T3-driven hSN138 cDNA, T3-RNA polymerase and dNTP with or without T3-driven CFTR cDNA directly into the cytoplasm as previously described (Geib et al., 2001). After 2 days of incubation at 15° C., dual electrode voltage clamp was performed using 3 M KCl-filled glass microelectrodes with resistances of 1-2 MΩ. Unless otherwise specified, oocytes were voltage-clamped at a holding potential of −80 mV. During recordings, oocytes were bathed in continuously flowing (1-3 ml/min) medium containing 96 mM NaCl, 2 mM KCl, 1.8 mM CaCl2, and 5 mM HEPES, pH 7.5 (ND96 Buffer). Drugs were applied by local perfusion from a 10 ml glass capillary tube at a distance of 0.5 mm from the oocyte. […] CFTR channel activity is heavily regulated by the cytosolic levels of cyclic AMP which can be increased by activation of GS-coupled adenylyl cyclase (AC). Therefore, activation of GS-coupled AC pathway is assayed by applying test compound in ND96 solution to oocytes and observing the changes of inward CFTR currents at a holding potential of −80 mV.

[2] = system: CFTR; experiment: CFTR currents in Xenopus oocytes expressing CFTR alone (control without receptor); type: cell-based; design: dose or concentration left out as unconfirmed; conditions: betamethasone valerate, bullet application, n=4
Procedure: In the present invention, oocytes are harvested from Xenopus laevis as previously described (Quick and Lester, 1994; Smith et al., 1997). Oocytes were injected with a cocktail of T3-driven hSN138 cDNA, T3-RNA polymerase and dNTP with or without T3-driven CFTR cDNA directly into the cytoplasm as previously described (Geib et al., 2001). After 2 days of incubation at 15° C., dual electrode voltage clamp was performed using 3 M KCl-filled glass microelectrodes with resistances of 1-2 MΩ. Unless otherwise specified, oocytes were voltage-clamped at a holding potential of −80 mV. During recordings, oocytes were bathed in continuously flowing (1-3 ml/min) medium containing 96 mM NaCl, 2 mM KCl, 1.8 mM CaCl2, and 5 mM HEPES, pH 7.5 (ND96 Buffer). Drugs were applied by local perfusion from a […] glass capillary tube at a distance of 0.5 mm from the oocyte. Heterologous expression of GPCRs in Xenopus oocytes has been widely used to determine the identity of signaling pathways activated by agonist stimulation. CFTR channel activity is heavily regulated by the cytosolic levels of cyclic AMP which can be increased by activation of GS-coupled adenylyl cyclase (AC). Therefore, activation of GS-coupled AC pathway is assayed by applying test compound in ND96 solution to oocytes and observing the changes of inward CFTR currents at a holding potential of −80 mV.

## CCCCC(=O)O[C@]1(C(=O)CO)[C@@H](C)C[C@H]2[C@@H]3CCC4=CC(=O)C=C[C@]4(C)[C@@]3(F)[C@@H](O)C[C@@]21C [betamethasone valerate, fluoro-11b,17,21-trihydroxy-16b-methylpregna-1,4-diene-3,20-dione 17-valerate]
[1]
  increase of CFTR currents: 9.2±1.9 nA
[2]
  changes in CFTR currents: no significant changes
